Positions of bridges follow the written chain, without caps; N, C: chain ends. Non-standard residues stand in square brackets, D forms with d. Residues, ends and D or L forms follow the SMILES beside them. Tic = O=C(O)[C@@H]1Cc2ccccc2CN1
System: X4-tropic HIV-1 NL4-3
Settings: read-out: IC50 NL4-3; P4-CCR5 cells, HIV-1 NL4-3, peptide 2 h before infection, readout three days after infection
Text: These cells contain the β-galactosidase reporter gene under the control of the HIV-1 promoter. Thus, activation of the β-galactosidase reporter gene allows to measure the efficiency of HIV-1 infection and thus to quantitate the potency of HIV-1 inhibitors (Detheux M. et al., 2000; Journal of Experimental Medicine 192, 1501-1508; Münch et al., 2002; Antimicrobial Agents and Chemotherapy 46, 982-990).
To perform a typical infection assay, P4-CCR5 cells (Charneau et al., 1994; Journal of Molecular Biology 241, 651-662; Charneau et al., Virology. 1994 205, 247-53) were kept in RPMI 1640 medium supplemented with 10 volume % FCS. This cell line coexpresses CD4 and both HIV-1 coreceptors CCR5 and CXCR4 and contains the β-galactosidase gene under the control of the HIV-1 promoter. Virus stocks were generated by the calcium coprecipitation method as described (Detheux et al., J Exp Med. 192:1501-8; 2000), and the p24 antigen levels were quantitated with an HIV p24 ELISA kit obtained through the NIH AIDS Reagent Program. Cells were seeded in flat-bottomed 96-well dishes, cultured overnight, and incubated with the different doses of peptide for 2 h before infection with virus containing 1 ng of p24 antigen in a total volume of […] of medium. After overnight incubation, cells were washed twice and cultivated in fresh culture medium without inhibitory peptide. Three days after infection the cells were lysed, and infectivity was quantitated using the Galacto-Light Plus™ chemiluminescence reporter assay kit (Tropix, Bedford, Mass.) as recommended by the manufacturer. All infections were performed in quintuplicate.

With CC[C@H](C)[C@H](NC(=O)[C@H](CC(=O)O)NC(=O)[C@H](CCC(=O)O)NC(=O)[C@@H](N)CC(C)C)C(=O)N1CCC[C@H]1C(=O)N[C@@H](CCSC)C(=O)NCC(=O)N[C@H](C(=O)N1CCC[C@H]1C(=O)N1CCC[C@@H]1C(=O)N[C@@H](CCC(=O)O)C(=O)N[C@H](C(=O)N[C@@H](C)C(=O)N[C@@H](Cc1ccccc1)C(=O)N[C@@H](CC(N)=O)C(=O)N[C@@H](CCCCN)C(=O)N1CCC[C@H]1C(=O)N[C@@H](Cc1ccccc1)C(=O)N[C@H](C(=O)N[C@@H](Cc1ccccc1)C(=O)O)C(C)C)C(C)C)[C@@H](C)CC [VIR-326, LEDIPMGIPpEVAFNKPFVF] (H-LEDIPMGIP[dP]EVAFNKPFVF-OH) as the molecule, how does the IC50 read?
Its IC50 is 963 nM.

CC[C@H](C)[C@H](NC(=O)[C@@H]1CCCN1C(=O)[C@@H](NC(=O)[C@H](C)NC(=O)[C@H](CCC(=O)O)NC(=O)[C@@H](N)CC(C)C)[C@@H](C)CC)C(=O)N[C@@H](CO)C(=O)N[C@H](C(=O)N1CCC[C@H]1C(=O)N1CCC[C@@H]1C(=O)N[C@@H](CCC(=O)O)C(=O)N[C@H](C(=O)N[C@@H](Cc1c[nH]c2ccccc12)C(=O)N[C@@H](Cc1ccccc1)C(=O)N[C@@H](CC(N)=O)C(=O)N[C@@H](CCCCN)C(=O)N1CCC[C@H]1C(=O)N[C@@H](Cc1ccccc1)C(=O)N[C@H](C(=O)N[C@@H](Cc1ccccc1)C(=O)O)C(C)C)C(C)C)[C@@H](C)CC [VIR-298, LEAIPISIPpEVWFNKPFVF] (H-LEAIPISIP[dP]EVWFNKPFVF-OH) was tested. Which IC50 did it give?
The IC50 was 969 nM.

Which IC50 does the source give for H-LEAIPISIPPEVFFGKPFVF-OH [VIR-284] here?
Its IC50 is 281 nM.

How did the IC50 turn out when CC[C@H](C)[C@H](NC(=O)[C@@H]1CCCN1C(=O)[C@@H](NC(=O)[C@H](CCCCN)NC(=O)[C@H](CCC(=O)O)NC(=O)[C@@H](N)CC(C)C)[C@@H](C)CC)C(=O)NCC(=O)N[C@H](C(=O)N1CCC[C@H]1C(=O)N1CCC[C@@H]1C(=O)N[C@@H](CCC(=O)O)C(=O)N[C@H](C(=O)N[C@@H](C)C(=O)N[C@@H](Cc1ccccc1)C(=O)N[C@@H](CC(N)=O)C(=O)N[C@@H](CCCCN)C(=O)N1Cc2ccccc2C[C@H]1C(=O)N[C@@H](Cc1ccccc1)C(=O)N[C@H](C(=O)N[C@@H](Cc1ccccc1)C(=O)O)C(C)C)C(C)C)[C@@H](C)CC [VIR-485, LEKIPIGIPpEVAFNK(L-Tic)FVF] (H-LEKIPIGIP[dP]EVAFNK[Tic]FVF-OH) was run?
Its IC50 is 760 nM.

How did the IC50 turn out when CC[C@H](C)[C@H](NC(=O)[C@H](C)NC(=O)[C@H](CCC(=O)O)NC(=O)[C@@H](N)CC(C)C)C(=O)N1CCC[C@H]1C(=O)N[C@@H](CCSC)C(=O)NCC(=O)N[C@H](C(=O)N1CCC[C@H]1C(=O)N1CCC[C@@H]1C(=O)N[C@@H](CCC(=O)O)C(=O)N[C@@H](Cc1ccccc1)C(=O)N[C@@H](CC(C)C)C(=O)N[C@@H](Cc1ccccc1)C(=O)NCC(=O)N[C@@H](CCCCN)C(=O)N1CCC[C@H]1C(=O)N[C@@H](Cc1ccccc1)C(=O)N[C@H](C(=O)N[C@@H](Cc1ccccc1)C(=O)O)C(C)C)[C@@H](C)CC [VIR-416, LEAIPMGIPpEFLFGKPFVF] (H-LEAIPMGIP[dP]EFLFGKPFVF-OH) was run?
The IC50 was 369 nM.

Which IC50 does the source give for CC[C@H](C)[C@H](NC(=O)[C@H](C)NC(=O)[C@H](CCC(=O)O)NC(=O)[C@@H](N)CC(C)C)C(=O)N1CCC[C@H]1C(=O)N[C@H]1CSSC[C@@H](C(=O)N[C@H](C(=O)N[C@@H](C)C(=O)N[C@@H](Cc2ccccc2)C(=O)N[C@@H](CC(N)=O)C(=O)N[C@@H](CCCCN)C(=O)N2CCC[C@H]2C(=O)N[C@@H](Cc2ccccc2)C(=O)N[C@H](C(=O)N[C@@H](Cc2ccccc2)C(=O)O)C(C)C)C(C)C)NC(=O)[C@H]2CCCN2C(=O)[C@@H]2CCCN2C(=O)[C@H]([C@@H](C)CC)NC(=O)CNC1=O [VIR-355, LEAIPCGIPpCVAFNKPFVF] (H-LEAIPCGIP[dP]CVAFNKPFVF-OH; disulfide 6-11) here?
Its IC50 is 582 nM.

With CC[C@H](C)[C@H](NC(=O)[C@H](C)NC(=O)[C@H](CCC(=O)O)NC(=O)[C@@H](N)CC(C)C)C(=O)N1CCC[C@H]1C(=O)N[C@@H](CCSC)C(=O)NCC(=O)N[C@H](C(=O)N1CCC[C@H]1C(=O)N1CCC[C@@H]1C(=O)N[C@@H](CCC(=O)O)C(=O)N[C@@H](Cc1ccccc1)C(=O)N[C@@H](CC(C)C)C(=O)N[C@@H](Cc1ccccc1)C(=O)N[C@@H](CC(N)=O)C(=O)N[C@@H](CCCCN)C(=O)N1CCC[C@H]1C(=O)N[C@@H](Cc1ccccc1)C(=O)N[C@H](C(=O)N[C@@H](Cc1ccccc1)C(=O)O)C(C)C)[C@@H](C)CC [VIR-323, LEAIPMGIPpEFLFNKPFVF] (H-LEAIPMGIP[dP]EFLFNKPFVF-OH) as the molecule, how does the IC50 read?
Its IC50 is 924 nM.

With CC[C@H](C)[C@H](NC(=O)[C@H](C)NC(=O)[C@H](CCC(=O)O)NC(=O)[C@@H](N)CC(C)C)C(=O)N1CCC[C@H]1C(=O)N[C@@H](CCSC)C(=O)NCC(=O)N[C@H](C(=O)N1CCC[C@H]1C(=O)N1CCC[C@@H]1C(=O)N[C@@H](CCC(=O)O)C(=O)N[C@H](C(=O)N[C@@H](Cc1c[nH]c2ccccc12)C(=O)N[C@@H](Cc1ccccc1)C(=O)N[C@@H](CC(N)=O)C(=O)N[C@@H](CCCCN)C(=O)N1CCC[C@H]1C(=O)N[C@@H](Cc1ccccc1)C(=O)N[C@H](C(=O)N[C@@H](Cc1ccccc1)C(=O)O)C(C)C)C(C)C)[C@@H](C)CC [VIR-328, LEAIPMGIPpEVWFNKPFVF] (H-LEAIPMGIP[dP]EVWFNKPFVF-OH) as the molecule, how does the IC50 read?
Its IC50 is 685 nM.

How did the IC50 turn out when CC[C@H](C)[C@H](NC(=O)[C@@H]1CCCN1C(=O)[C@@H](NC(=O)[C@H](CC(=O)O)NC(=O)[C@H](CCC(=O)O)NC(=O)[C@@H](N)CC(C)C)[C@@H](C)CC)C(=O)NCC(=O)N[C@H](C(=O)N1CCC[C@H]1C(=O)N1CCC[C@@H]1C(=O)N[C@@H](CCC(=O)O)C(=O)N[C@@H](Cc1ccccc1)C(=O)N[C@@H](CC(C)C)C(=O)N[C@@H](Cc1ccccc1)C(=O)N[C@@H](CC(N)=O)C(=O)N[C@@H](CCCCN)C(=O)N1CCC[C@H]1C(=O)N[C@@H](Cc1ccccc1)C(=O)N[C@H](C(=O)N[C@@H](Cc1ccccc1)C(=O)O)C(C)C)[C@@H](C)CC [VIR-479, LEDIPIGIPpEFLFNKPFVF] (H-LEDIPIGIP[dP]EFLFNKPFVF-OH) was run?
The IC50 was 479 nM.

How did the IC50 turn out when CC[C@H](C)[C@H](NC(=O)[C@@H]1CCCN1C(=O)[C@@H](NC(=O)[C@H](C)NC(=O)[C@H](CCC(=O)O)NC(=O)[C@@H](N)CC(C)C)[C@@H](C)CC)C(=O)N[C@@H](CO)C(=O)N[C@H](C(=O)N1CCC[C@H]1C(=O)N1CCC[C@@H]1C(=O)N[C@@H](CCC(=O)O)C(=O)N[C@H](C(=O)N[C@@H](C)C(=O)N[C@@H](Cc1ccccc1)C(=O)N[C@@H](CC(N)=O)C(=O)N[C@@H](CCCCN)C(=O)N1Cc2ccccc2C[C@H]1C(=O)N[C@@H](Cc1ccccc1)C(=O)N[C@H](C(=O)N[C@@H](Cc1ccccc1)C(=O)O)C(C)C)C(C)C)[C@@H](C)CC [VIR-447, LEAIPISIPpEVAFNK(L-Tic)FVF] (H-LEAIPISIP[dP]EVAFNK[Tic]FVF-OH) was run?
The IC50 was 620 nM.

How did the IC50 turn out when CC[C@H](C)[C@H](NC(=O)[C@H](CC(=O)O)NC(=O)[C@H](CCC(=O)O)NC(=O)[C@@H](N)CC(C)C)C(=O)N1CCC[C@H]1C(=O)N[C@@H](CCSC)C(=O)N[C@@H](CO)C(=O)N[C@H](C(=O)N1CCC[C@H]1C(=O)N1CCC[C@@H]1C(=O)N[C@@H](CCC(=O)O)C(=O)N[C@H](C(=O)N1Cc2ccccc2C[C@H]1C(=O)N[C@@H](Cc1ccccc1)C(=O)N[C@@H](CC(N)=O)C(=O)N[C@@H](CCCCN)C(=O)N1CCC[C@H]1C(=O)N[C@@H](Cc1ccccc1)C(=O)N[C@H](C(=O)N[C@@H](Cc1ccccc1)C(=O)O)C(C)C)C(C)C)[C@@H](C)CC [VIR-452, LEDIPMSIPpEV(L-Tic)FNKPFVF] (H-LEDIPMSIP[dP]EV[Tic]FNKPFVF-OH) was run?
Its IC50 is 184 nM.

How did the IC50 turn out when CC[C@H](C)[C@H](NC(=O)[C@H](C)NC(=O)[C@H](CCC(=O)O)NC(=O)[C@@H](N)CC(C)C)C(=O)N1CCC[C@H]1C(=O)N[C@@H](CCSC)C(=O)NCC(=O)N[C@H](C(=O)N1CCC[C@H]1C(=O)N1CCC[C@@H]1C(=O)N[C@@H](CCC(=O)O)C(=O)N[C@H](C(=O)N[C@@H](Cc1ccccc1)C(=O)N[C@@H](Cc1ccccc1)C(=O)N[C@@H](CC(N)=O)C(=O)N[C@@H](CCCCN)C(=O)N1CCC[C@H]1C(=O)N[C@@H](Cc1ccccc1)C(=O)N[C@H](C(=O)N[C@@H](Cc1ccccc1)C(=O)O)C(C)C)C(C)C)[C@@H](C)CC [VIR-322, LEAIPMGIPpEVFFNKPFVF] (H-LEAIPMGIP[dP]EVFFNKPFVF-OH) was run?
The IC50 was 836 nM.

Which IC50 does the source give for CC[C@H](C)[C@H](NC(=O)[C@H](CCCCN)NC(=O)[C@H](CCC(=O)O)NC(=O)[C@@H](N)CC(C)C)C(=O)N1CCC[C@H]1C(=O)N[C@@H](CCSC)C(=O)NCC(=O)N[C@H](C(=O)N1CCC[C@H]1C(=O)N1CCC[C@@H]1C(=O)N[C@@H](CCC(=O)O)C(=O)N[C@@H](Cc1ccccc1)C(=O)N[C@@H](CC(C)C)C(=O)N[C@@H](Cc1ccccc1)C(=O)NCC(=O)N[C@@H](CCCCN)C(=O)N1CCC[C@H]1C(=O)N[C@@H](Cc1ccccc1)C(=O)N[C@H](C(=O)N[C@@H](Cc1ccccc1)C(=O)O)C(C)C)[C@@H](C)CC [VIR-418, LEKIPMGIPpEFLFGKPFVF] (H-LEKIPMGIP[dP]EFLFGKPFVF-OH) here?
The IC50 was 500 nM.

Source: patent US7655629B2, “Peptides and their use for the treatment of HIV infections” (priority 2002, dated 2010)
